Assay results as given in US5283255A, “Wavelength-specific cytotoxic agents” (The University of British Columbia, priority 1992, dated 1994).
“And” between values parts separate entries of the source, which are not always exact repeats. Equal entries are not always repeated. Where two headings read alike, the source gives them in different places.

Key:
[1] = system: Human atherosclerotic iliofemoral arteries and aorta; experiment: In vitro human atherosclerotic tissue study, fluorescence microscopy
Procedure: Human atherosclerotic iliofemoral arteries and aorta were harvested and wrapped in saline-soaked gauze and then incubated for 2 hours at room temperature in MEM-Eagle's Medium and 10% fetal calf serum mixed with BPD-MA formulated at 30 μg/ml. The BPD was prepared by mixing 1 ml of BPD-MA stock solution with 8.1 ml MEM-Eagle's Medium and 0.9 ml fetal calf serum.
The sample was rinsed three times in cold normal saline, and the sections were examined by fluorescence microscopy to evaluate the uptake of BPD. The administered dose was finally diluted to provide solutions containing 0.5-200 μg/ml, and incubation time was varied.

[2] = system: warts caused by Papilloma virus; experiment: Systemic administration, papilloma-caused warts in rabbits; assay type: in vivo, rabbit; conditions: of 12 warts, 2 mg/kg IV
Procedure: Rabbits displaying warts caused by Papilloma virus were provided according to the model described by Shope et al., J. Exp. Med, (1933) 58:607-624. Five rabbits were administered Photofrin® II porfimer sodium intravenously at 10 mg/kg total dose over a ≤5 minute period beginning 24 hours before irradiation treatment. Six rabbits were administered BPD-MA intravenously at 2 mg/kg total dose over a ≤5 minute period beginning 2.5-3.5 hours before irradiation treatment. Warts were irradiated individually with no light, 150 J/cm^2 or 250 J/cm^2 using 630 nm for porfimer sodium and 690 nm for BPD-MA.

P815 target cells = conditions: mouse, in vivo, iv
Procedure: (§4) To determine biodegradability, tritiated BPD-MA was injected IV into P815 tumor-bearing mice. The mice were sacrificed at either 3 or 24 hours following injection and tumors, livers and kidneys were removed. The BPD-MA in these tissues was extracted and photoactivity was assessed in P815 target cells as described above in Example 1 under standard in vitro conditions.

atherosclerotic aortas = experiment: Rabbit studies of aorta, fluorescence microscopy; assay type: in vivo
Procedure: The rabbits were injected with BPD-MA at various dosages and time intervals prior to sacrifice. The rabbits were euthanized by injection and the entire descending aorta was removed, sectioned, and examined by fluorescence microscopy.

in vivo = conditions: mouse, iv
Procedure: as §4

VSV = experiment: microbe, parasite or virus in culture; set-up: species or system Vesicular stomatitis virus; conditions: for log reduction at 2 µg/mL / log reduction at 1 µg/mL / log reduction at 1000 µg/mL: Vesicular stomatitis virus, light or radiation study; for log reduction at 2 µg/mL / log reduction at 1 µg/mL: 2 h; for log reduction at 2 µg/mL: read-out: viral kill, 2 μg/ml, 1 ml; for log reduction at 1 µg/mL: read-out: virus kill, 1 μg/ml; for log reduction at 1000 µg/mL: read-out: virus kill, 1 mg/ml (so in the source)
colon adenocarcinoma [3] = conditions: rat, in vivo
tumor cells = experiment: Alternate in vivo assay: kill of tumor cells from dosed mice (MTT); conditions: 180 min
skin [4] = conditions: mouse, in vivo
Procedure: (§5) Mice bearing P815 tumors were shaved and injected with equivalent amounts of photosensitizer, and exposed to 72 Jo/cm^2 (80 mw/cm^2 -15 min-full spectrum) at various time intervals. Skin biopsies were taken at 24 and 48 hours after light irradiation and visual evaluations were made blind.

target cells = experiment: In vitro evaluation of BPD-DA, -MA, -DB and -MB (as in Example 1); assay type: cell-based
Procedure: For the "affinity" assay, in the dark, 100 μl of the target cell suspension and 100 μl of the test or control compound were mixed. "Labeling" was allowed to continue for one hour at 4° C., and labeled cells were washed in the dark three times with 3 ml medium each time and resuspended in fresh medium. The resuspended cells were then subjected to light exposure at 300-750 nanometers for 30 minutes.
In a "direct" assay the target cells were irradiated immediately upon addition of the test or control compound.
The effect of irradiation was estimated using methods appropriate to the target cells.
The four compounds shown in FIG. 2, wherein R^1 and R^2 are carbomethoxy, were tested in vitro as described in Example 1.

M-1 rhabdomycoscercoma = experiment: In vivo photosensitization, M-1 rhabdomyosarcoma system in DBA/J2 mice; conditions: for Number of Days Tumor Free (PR) / Cures (tumor regressed and tumor-free for 30 days): Table 6; for Number of Days Tumor Free (PR): 567 Jo/cm^2, IV 24 h before light; for Cures (tumor regressed and tumor-free for 30 days): 567 Jo/cm^2, 8 animals per group; for Days Tumor-free / Number of Cures: Table 7, light dose 378 To/cm^3; for Number of Cures: 9-15 animals
Procedure: Studies of potential photosensitizers were performed using the M-1 rhabdomycoscercoma system in DBA/J2 mice. The compositions to be tested were diluted to a concentration of […] in PBS from a stock solution in DMSO at 8 mg/ml (except Photofrin® II, which was diluted directly from the clinical vial). […]

colon adenocarcinoma [5] = experiment: Detection of tumors by fluorescence in rats; conditions: 3.5 mg/kg IV; 3 h
[6] = Solubility on dilution for addition to blood; conditions: DMSO stock 8 mg/ml diluted into PBS
skin [7] = experiment: Skin sensitivity assay in mice bearing P815 tumors
Procedure: as §5

[8] = assay type: in vitro ADME, human
Procedure: (§1) Franz in vitro percutaneous diffusion chambers were used to conduct studies of BPD formulations with oleic acid and oleyl alcohol vehicles (^14 C-BPD having a specific activity of 6 μCi was used). Excised split thickness (200 μ) human cadaver skin was mounted on the chamber (surface area 3 cm^2). The lower reservoir contained 4% bovine serum albumen in isotonic buffered saline, pH 7.0.
(§2) The chambers with the skin were equilibrated to 37° C. prior to application of the drug formulations. Formulations ([…] containing 1.67 μCi) were applied to the epidermal surface of the skin. The chamber was covered (occluded) to prevent evaporation, and the experiment was conducted in the dark.
(§3) Six diffusion cells were run for each time point (1.5 hr, 3 hr, 24 hr) for each formulation. Samples were removed from the dermal chamber at 1.5 hr, 3 hr and 24 hr. Cumulative penetration was assayed by liquid scintillation.
At the end of the respective time point, the surface of the skin was washed to remove surface drug. A 4 mm full thickness skin punch biopsy was taken from each specimen and processed for frozen section tissue fluorescence. […] The stratum corneum was removed by 25 repetitive strippings with cellophane tape and counted in groups of five. […] These tissues were then digested and the ^14 C-BPD content of each of the skin compartments and reservoir was determined by liquid scintillation counting. […]

[9] = assay type: in vitro ADME; conditions: human
Procedure: as §1, §2, §3
At the end of the respective time point, the surface of the skin was washed to remove surface drug. A 4 mm full thickness skin punch biopsy was taken from each specimen and processed for frozen section tissue fluorescence. This necessitates termination of flux measurements in that chamber. The stratum corneum was removed by 25 repetitive strippings with cellophane tape and counted in groups of five. The epidermis was heat-separated from the dermis by heating to 60° C. for 1 minute. These tissues were then digested and the ^14 C-BPD content of each of the skin compartments and reservoir was determined by liquid scintillation counting. (In the tables, "BPD-OA" and "BPD-OL" represent the BPD-oleic acid and BPD-oleyl alcohol formulations of the preceding example, "CH-014" represents ^14 C-labeled BPD-MA, and "phospholipid" represents a BPD-MA liposomal formulation.)

[10] = 33 μg/mouse IV, light dose 5.7 Jo

In the case of `C=Cc1c(C)c2cc3nc(cc4[nH]c(cc5nc(cc1[nH]2)C(C)=C5CCC(=O)O)c(CCC(=O)OC)c4C)C1(C)C3=CC=C(C(=O)OC)C1C(=O)OC` (stereo not shown) [BPD-MA], the “fluorescence for detection of plaques” value ([1]; 10 μg/ml or less) is reported as “did not provide sufficient fluorescence to detect the presence of plaques”, the “fluorescence for detection of plaques” value ([1]; 100 μg/ml and above) is reported as “fluorescence was clearly seen” and the “fluorescence in plaqued areas” value ([1]; approximately 25 μg/ml) is reported as “showed most intensely in the plaqued areas”. For the same compound, the “fluorescence in underlying arterial wall” value ([1]; approximately 25 μg/ml) was “no fluorescence was seen in the underlying arterial wall”, the warts completely regressed ([2]; 150 J/cm^2, 690 nm) was 7 and the “warts showing >50% regression” value ([2]; 150 J/cm^2, 690 nm) was 5. The “warts showing complete cure” value ([2]; 250 J/cm^2, 690 nm) was 12, the “degradation in liver and kidney compared with tumor tissue” value (P815 target cells) was “both the liver and kidney degraded BPD more rapidly than did tumor tissue” and the “fluorescence in aorta tissue samples” value (atherosclerotic aortas; 30 μg/kg) was “No fluorescence was seen”. For the same compound, the “fluorescence in normal aorta samples” value (atherosclerotic aortas; 100 μg/kg) was “no fluorescence was shown in the normal aorta samples”, the “fluorescence in atherosclerotic samples” value (atherosclerotic aortas; 100 μg/kg, two samples) was “fluorescence was seen in the plaque but not the arterial wall” and the remaining at 3 h (in vivo) was 100%. The remaining at 24 h (in vivo) was 39%, the “relationship between total light energy and drug dose required to inactivate VSV” value (VSV; 1, 2 and 4 μg/ml, 1 ml samples, 2 h before light) was “inverse relationship between total light energy and the drug dose required to inactivate the VSV” and the virus inactivation (VSV; 2 and 4 μg/ml, 2 h dark incubation, 57.6 J/cm^2, 1 and 2 ml samples) was “complete virus inactivation”. For the same compound, the “effect of increasing incubation time on VSV inactivation” value (VSV; 0.5 hour to 1 hour, 1 μg/ml, 57.6 J/cm^2) was “improved VSV inactivation”, the log reduction at 2 µg/mL (VSV; 57.6 J/cm^2) was 7 and the log reduction at 1 µg/mL (VSV; 28.8 J/cm^2) was 2. For the same compound, the log reduction at 1 µg/mL (VSV; 57.6 J/cm^2) was 5, the log reduction at 1000 µg/mL (VSV; 1 ml sample, 57.6 J/cm^2) was 4 and the log reduction at 1000 µg/mL (VSV; 2 ml sample, 57.6 J/cm^2) was 2. For the same compound, the “effect of incubation temperature” value (VSV; room temperature, 37° C. or 4° C.) was “little difference”, the “effect of further increasing incubation time on VSV inactivation” value (VSV; to 2-3 hours, 1 μg/ml, 57.6 J/cm^2) was “little effect” and the “drug-related signal over malignant tumor” value (colon adenocarcinoma [3]) was “BPD-MA-related signal increases over the malignant tumor”. For the same compound, the “% Kill” value (tumor cells; [10]) was 22.0%, the “% Kill” value (tumor cells; 40 μg/mouse IV, light dose 3.8 Jo) was 32.5% and the “% Kill” value (tumor cells; 80 μg/mouse IV, light dose 3.8 Jo) was 63.5 ± 2.1% and 53.7 ± 6.2%. For the same compound, the skin photosensitizing activity (skin [4]) was “major photosensitizing activity”, the “time dependence of skin photosensitizing activity” value (skin [4]) was “only present when light treatment was given 3 hours post drug administration” and the in vitro photosensitivity (target cells) was “somewhat more active”. The “Number of Days Tumor Free (PR)” value (M-1 rhabdomycoscercoma) was 9.2 days, the “Cures (tumor regressed and tumor-free for 30 days)” value (M-1 rhabdomycoscercoma) was 4 and the “Days Tumor-free” value (M-1 rhabdomycoscercoma) was 13.2 days. For the same compound, the “Number of Cures” value (M-1 rhabdomycoscercoma) was 4 and the “ratio of tumor exterior to muscle compared with HP” value (colon adenocarcinoma [5]) was “approximately the same as that for HP”.
In the case of `C=Cc1c(C)c2cc3nc(cc4[nH]c(cc5nc(cc1[nH]2)C1(C)C5=CC=C(C(=O)OC)C1C(=O)OC)c(C)c4CCC(=O)O)C(CCC(=O)OC)=C3C` (stereo not shown) [BPD-MB], the log reduction at 2 µg/mL (VSV; 57.6 J/cm^2) is reported as 4, the “treatment required to achieve solubility” value [6] is reported as “required a 20-minute sonication in ultrasonic bath to achieve solubility” and the “% Kill” value (tumor cells; [10]) is reported as 25.2%. The skin photosensitizing activity (skin [7]; 72 Jo/cm^2, biopsies 24 and 48 h after light) was “to a lesser extent”, the “time dependence of skin photosensitizing activity” value (skin [7]; light at various intervals after drug) was “only present when light treatment was given 3 hours post drug administration” and the in vitro photosensitivity (target cells) was “somewhat more active”. For the same compound, the “Number of Days Tumor Free (PR)” value (M-1 rhabdomycoscercoma) was 10.6 days, the “Cures (tumor regressed and tumor-free for 30 days)” value (M-1 rhabdomycoscercoma) was 3 and the “Days Tumor-free” value (M-1 rhabdomycoscercoma) was 8.7 days. For the same compound, the “Number of Cures” value (M-1 rhabdomycoscercoma) was 6.
With `C=Cc1c(C)c2cc3nc(cc4[nH]c(cc5nc(cc1[nH]2)C(C)=C5CCC(=O)O)c(CCC(=O)OC)c4C)C1(C)C3=CC=C(C(=O)OC)C1C(=O)OC` (stereo not shown) [CH-014] the “TISSUE FLUORESCENCE, Dermis” value [8] was 1, the “PERCENT RECOVERY, Dermis” value ([9]; 90 min) was “.19 ± .06%” and the “PERCENT RECOVERY, Epidermis” value ([9]; 90 min) was “.13 ± .13%”. The “PERCENT RECOVERY, Reservoir” value ([9]; 90 min) was 0%, the “PERCENT RECOVERY, Dermis” value ([9]; 180 min) was “.32 ± .11%” and the “PERCENT RECOVERY, Epidermis” value ([9]; 180 min) was “.06 ± .02%”. The “PERCENT RECOVERY, Reservoir” value ([9]; 180 min) was 0%, the “PERCENT RECOVERY, Dermis” value ([9]; 1440 min) was “.40 ± .28%” and the “PERCENT RECOVERY, Epidermis” value ([9]; 1440 min) was “.06 ± .03%”. The “PERCENT RECOVERY, Reservoir” value ([9]; 1440 min) was “.014 ± .018%”.
